What was measured:
Assay type in all cases: biochemical
PRMT1 = PRMT1 (Homo sapiens, UniProt Q99873); test: PRMT1 IC50 assay; details: read-out: IC50 for PRMT1; 200 nM PRMT1, 15 µM 14C-methyl-SAM, 25 µM AcH4-21, 37 °C
PRMT6 = PRMT6 (Homo sapiens, UniProt Q96LA8); test: PRMT6 IC50 assay; details: read-out: IC50 for PRMT6; 500 nM PRMT6, 15 µM 14C-methyl-SAM, 30 µM histone H3, 37 °C
PRMT3 = PRMT3 IC50 assay; details: read-out: IC50 for PRMT3; 500 nM PRMT3, 15 µM 14C-methyl-SAM, 250 µM RGG, 37 °C
CARM1/PRMT4 = CARM1/PRMT4 IC50 assay; details: read-out: IC50 for PRMT4; 150 nM CARM1/PRMT4, 15 µM 14C-methyl-SAM, 10 µM histone H3, 30 °C

PRMT6, sequence (Q96LA8 whole entry, species assumed): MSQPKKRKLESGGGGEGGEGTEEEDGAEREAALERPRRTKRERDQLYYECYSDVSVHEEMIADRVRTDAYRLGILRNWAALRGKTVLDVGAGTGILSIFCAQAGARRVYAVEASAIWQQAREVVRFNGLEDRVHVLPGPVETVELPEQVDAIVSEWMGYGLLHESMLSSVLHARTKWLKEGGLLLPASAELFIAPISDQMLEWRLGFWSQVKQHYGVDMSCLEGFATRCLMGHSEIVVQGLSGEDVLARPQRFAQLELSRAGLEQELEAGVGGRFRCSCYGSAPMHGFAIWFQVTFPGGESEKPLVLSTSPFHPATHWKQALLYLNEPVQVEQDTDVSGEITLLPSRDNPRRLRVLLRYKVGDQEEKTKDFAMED
PRMT1, sequence (Q99873 1-353 isoform Q99873-3): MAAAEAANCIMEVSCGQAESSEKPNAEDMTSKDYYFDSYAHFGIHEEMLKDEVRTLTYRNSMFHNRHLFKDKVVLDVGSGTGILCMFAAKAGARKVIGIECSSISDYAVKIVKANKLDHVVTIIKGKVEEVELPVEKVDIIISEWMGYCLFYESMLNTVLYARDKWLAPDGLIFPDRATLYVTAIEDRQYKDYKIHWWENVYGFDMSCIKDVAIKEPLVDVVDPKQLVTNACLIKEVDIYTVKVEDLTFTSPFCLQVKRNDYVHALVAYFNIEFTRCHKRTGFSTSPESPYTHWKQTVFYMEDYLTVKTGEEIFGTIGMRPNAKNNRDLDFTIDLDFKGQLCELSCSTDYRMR

IC50 (PRMT1) [µM] | IC50 (PRMT6) [µM] | IC50 (PRMT3) [µM] | IC50 (CARM1/PRMT4) [µM] | SMILES
225 ± 10 | > 500 | > 500 | > 500 | NC(=O)[C@H](CCCN=C(N)CCl)NC(=O)c1ccccc1 [Cl-amidine]
> 500 | > 500 | > 500 | > 500 | NC(=O)[C@H](CCCN=C(N)CF)NC(=O)c1ccccc1 [F-amidine]

Reference: publication PMC3060404 (Chembiochem : a European journal of chemical biology, 2010)
